# From patent publication US20160108027A1, “SUBSTITUTED BENZOXAZOLES” (BAYER PHARMA AKTIENGESELLSCHAFT, priority 2013, published 2016)
# pIC50: −log10 of the molar value.
# Assays:
# [1] = target: T1, thrombin (Homo sapiens, UniProt P00734); assay: Measurement of the thrombin inhibition in buffer; assay type: biochemical; details: human thrombin 0.06 nmol/l in Tris buffer pH 7.4, 22° C., substrate Boc-Asp(OBzl)-Pro-Arg-AMC; in some cases means of individual determinations
# Protocol: To determine the thrombin inhibition of the substances listed above, a biochemical test system is constructed in which the conversion of a thrombin substrate is used for determining the enzymatic activity of human thrombin. Here, thrombin cleaves aminomethylcoumarin, which is measured fluorescently, from the peptic substrate. The determinations are carried out in microtitre plates.
# Substances to be tested are dissolved in various concentrations in dimethyl sulphoxide and incubated for 15 min with human thrombin (0.06 nmol/l dissolved in 50 mmol/l of Tris buffer [C,C,C-tris(hydroxymethyl)aminomethane], 100 mmol/l of sodium chloride, 0.1% BSA [bovine serum albumin], pH 7.4) at 22° C. The substrate (5 μmol/l Boc-Asp(OBzl)-Pro-Arg-AMC from Bachem) is then added. After 30 min of incubation, the sample is excited at a wavelength of 360 nm and the emission is measured at 460 nm. The measured emissions of the test mixtures with test substance are compared to the control mixtures without test substance (only dimethyl sulphoxide instead of test substance in dimethyl sulphoxide) and IC50 values are calculated from the concentration/activity relationships. Representative activity data from this test are given in Table 1 below (in some cases as means of individual determinations): […]
# [2] = target: T1, thrombin; assay: Determination of the thrombin-inhibitory activity in plasma samples (ecarin-activated); assay type: biochemical; details: citrate plasma, ecarin activation, fluorogenic thrombin substrate; in some cases means of individual determinations
# Protocol: To determine the inhibition of thrombin in plasma samples, plasma […] is activated by ecarin. Thrombin activity and/or its inhibition by potential inhibitors is/are then measured fluorenscently by addition of a substrate.
# The substances to be tested are dissolved in various concentrations in dimethyl sulphoxide and diluted with water. In white 96-well flat-bottomed plates, 20 μl of substance dilution are mixed with 20 μl of ecarin solution (ecarin reagent, from Sigma E-0504, final concentration 20 mU per reaction) in Ca buffer (200 mM Hepes+560 mM sodium chloride+10 mM calcium chloride+0.4% PEG) or with 20 μl of Ca buffer (as unstimulated control). Furthermore, 20 μl of fluorogenic thrombin substrate (from Bachem 1-1120, final concentration 50 μmol/1) and 20 μl of citrate plasma (from Octapharma) are added, and the mixture is homogenized well. The plate is measured in a SpectraFluorplus Reader using a 360 nm excitation filter and a 465 nm emission filter every minute over 20 minutes. […] Representative activity data from this test are given in Table 2 below (in some cases as means of individual determinations): […]
smiles,measurement,setting,value
"COc1cc(C(=O)N2CC(C)(CC(C)O)OCC2CF)cc2nc(NCc3cc(Cl)ccn3)oc12 (racemic) [Example 22, (2-{[(4-Chloropyridin-2-yl)methyl]amino}-7-methoxy-1,3-benzoxazol-5-yl) [5-(fluoromethyl)-2-(2-hydroxypropyl)-2-methylmorpholin-4-yl]methanone]",pIC50,[1],8.77
same,pIC50,[2],7.96
"COc1cc(C(=O)N2CC(C)(CCO)OCC2(C)C)cc2nc(NCc3cc(Cl)ccn3)oc12 (racemic) [Example 32, (2-{[(4-Chloropyridin-2-yl)methyl]amino}-7-methoxy-1,3-benzoxazol-5-yl) [2-(2-hydroxyethyl)-2,5,5-trimethylmorpholin-4-yl]methanone]",pIC50,[1],7.92
same,pIC50,[2],7.44
"COc1cc(C(=O)N2CC(C)(CC(C)O)OCC2(C)C)cc2nc(NCc3cc(Cl)ccn3)oc12 (racemic) [Example 34, (2-{[(4-Chloropyridin-2-yl)methyl]amino}-7-methoxy-1,3-benzoxazol-5-yl) [2-(2-hydroxypropyl)-2,5,5-trimethylmorpholin-4-yl]methanone]",pIC50,[1],8.14
same,pIC50,[2],7.43
"COc1cc(C(=O)N2CC(C)(C)OCC2(C)CO)cc2nc(NCc3cc(Cl)ccn3)oc12 (racemic) [Example 38, (2-{[(4-Chloropyridin-2-yl)methyl]amino}-7-methoxy-1,3-benzoxazol-5-yl) [5-(hydroxymethyl)-2,2,5-trimethylmorpholin-4-yl]methanone]",pIC50,[1],7.89
same,pIC50,[2],7.66
"COCC1COC(C)(C)CN1C(=O)c1cc(OC)c2oc(NCc3cc(Cl)ccn3)nc2c1 (racemic) [Example 41, (2-{[(4-Chloropyridin-2-yl)methyl]amino}-7-methoxy-1,3-benzoxazol-5-yl) [5-(methoxymethyl)-2,2-dimethylmorpholin-4-yl]methanone]",pIC50,[1],7.30
same,pIC50,[2],7.30
"COc1cc(C(=O)N2CC(C)(C)OCC2CF)cc2nc(NCc3cc(Cl)ccn3)oc12 (racemic) [Example 42, (2-{[(4-Chloropyridin-2-yl)methyl]amino}-7-methoxy-1,3-benzoxazol-5-yl) [5-(fluoromethyl)-2,2-dimethylmorpholin-4-yl]methanone]",pIC50,[1],7.57
same,pIC50,[2],7.47
"COc1cc(C(=O)N2CC(C)OCC2(C)C)cc2nc(NCc3cc(Cl)ccn3)oc12 (racemic) [Example 44, (2-{[(4-Chloropyridin-2-yl)methyl]amino}-7-methoxy-1,3-benzoxazol-5-yl)(2,5,5-trimethylmorpholin-4-yl)methanone]",pIC50,[1],7.49
"COc1cc(C(=O)N2CC(C)OCC2CC(C)(C)O)cc2nc(NCc3cc(Cl)ccn3)oc12 (racemic) [Example 55, (2-{[(4-Chloropyridin-2-yl)methyl]amino}-7-methoxy-1,3-benzoxazol-5-yl) [5-(2-hydroxy-2-methylpropyl)-2-methylmorpholin-4-yl]methanone]",pIC50,[1],7.68
same,pIC50,[2],7.48
"COc1cc(C(=O)N2CC(C)OCC2CCO)cc2nc(NCc3cc(Cl)ccn3)oc12 (racemic) [Example 70, (2-{[(4-Chloropyridin-2-yl)methyl]amino}-7-methoxy-1,3-benzoxazol-5-yl) [5-(2-hydroxyethyl)-2-methylmorpholin-4-yl]methanone]",pIC50,[1],7.42
same,pIC50,[2],7.13
"COc1cc(C(=O)N2CC3(CC3)NC(=O)C2C)cc2nc(NCc3cc(Cl)ccn3)oc12 (racemic) [Example 76, 7-[(2-{[(4-Chloropyridin-2-yl)methyl]amino}-7-methoxy-1,3-benzoxazol-5-yl)carbonyl]-6-methyl-4,7-diazaspiro[2.5]octan-5-one]",pIC50,[1],7.72
same,pIC50,[2],7.44
"CCC1C(=O)NC2(CC2)CN1C(=O)c1cc(OC)c2oc(NCc3cc(Cl)ccn3)nc2c1 (racemic) [Example 78, 7-[(2-{[(4-Chloropyridin-2-yl)methyl]amino}-7-methoxy-1,3-benzoxazol-5-yl)carbonyl]-6-ethyl-4,7-diazaspiro[2.5]octan-5-one]",pIC50,[1],7.89
same,pIC50,[2],7.72
"COc1cc(C(=O)N2CC(C)(C)NC(=O)C2CC(N)=O)cc2nc(NCc3cc(Cl)ccn3)oc12 (racemic) [Example 82, 2-{1-[(2-{[(4-Chloropyridin-2-yl)methyl]amino}-7-methoxy-1,3-benzoxazol-5-yl)carbonyl]-5,5-dimethyl-3-oxopiperazin-2-yl}acetamide]",pIC50,[1],6.77
"COc1cc(C(=O)N2CC(C)(C)NC(=O)C2CC#N)cc2nc(NCc3cc(Cl)ccn3)oc12 (racemic) [Example 83, {1-[(2-{[(4-Chloropyridin-2-yl)methyl]amino}-7-methoxy-1,3-benzoxazol-5-yl)carbonyl]-5,5-dimethyl-3-oxopiperazin-2-yl}acetonitrile]",pIC50,[1],7.44
same,pIC50,[2],7.21
"CCO[C@@H]1CC(CO)N(C(=O)c2cc(OC)c3oc(NCc4cc(Cl)ccn4)nc3c2)C1 (single isomer, unassigned) [Example 2]",pIC50,[1],8.21
same,pIC50,[2],7.72
"CCO[C@@H]1CC(CO)N(C(=O)c2cc(OC)c3oc(NCc4cc(Cl)ccn4)nc3c2)C1 (single isomer, unassigned) [Example 3]",pIC50,[1],6.48
"CCO[C@@H]1CC(CO)N(C(=O)c2cc(OC)c3oc(NC(C)c4cc(Cl)ccn4)nc3c2)C1 (single isomer, unassigned) [Example 5]",pIC50,[1],5.55
"COc1cc(C(=O)N2C[C@H](OCC(F)F)CC2CO)cc2nc(NCc3cc(Cl)ccn3)oc12 (single isomer, unassigned) [Example 7]",pIC50,[1],7.43
same,pIC50,[2],7.15
"[2H]C([2H])(C)O[C@@H]1CC(CO)N(C(=O)c2cc(OC)c3oc(NC(C)c4cc(Cl)ccn4)nc3c2)C1 (single isomer, unassigned) [Example 8]",pIC50,[1],5.59
"[2H]C([2H])(C)O[C@@H]1CC(CC#N)N(C(=O)c2cc(OC)c3oc(NCc4cc(Cl)ccn4)nc3c2)C1 (single isomer, unassigned) [Example 9]",pIC50,[1],8.01
same,pIC50,[2],7.89
"COc1cc(C(=O)N2C[C@H](OC3CC3)C[C@H]2CO)cc2nc(NC(C)c3cc(Cl)ccn3)oc12 (single isomer, unassigned) [Example 14]",pIC50,[1],6.26
"COc1cc(C(=O)N2C[C@H](OC3CC3)C[C@H]2CO)cc2nc(NC(C)c3cc(Cl)ccn3)oc12 (single isomer, unassigned) [Example 15]",pIC50,[1],8.19
same,pIC50,[2],7.68
"COc1cc(C(=O)N2CCCC2(C)C(=O)N2CC(F)(F)C2)cc2nc(NCc3cc(Cl)ccn3)oc12 (single isomer, unassigned) [Example 16, (2-{[(4-Chloropyridin-2-yl)methyl]amino}-7-methoxy-1,3-benzoxazol-5-yl){2-[(3,3-difluoroazetidin-1-yl)carbonyl]-2-methylpyrrolidin-1-yl}methanone]",pIC50,[1],7.52
same,pIC50,[2],7.44
"COc1cc(C(=O)N2CC(C)(C)OCC2CC(C)O)cc2nc(NCc3cc(Cl)ccn3)oc12 (single isomer, unassigned) [Example 64, (2-{[(4-Chloropyridin-2-yl)methyl]amino}-7-methoxy-1,3-benzoxazol-5-yl) [5-(2-hydroxypropyl)-2,2-dimethylmorpholin-4-yl]methanone]",pIC50,[1],7.36
"COc1cc(C(=O)N2CC(C)OCC2CC(C)O)cc2nc(NCc3cc(Cl)ccn3)oc12 (single isomer, unassigned) [Example 66, (2-{[(4-Chloropyridin-2-yl)methyl]amino}-7-methoxy-1,3-benzoxazol-5-yl) [5-(2-hydroxypropyl)-2-methylmorpholin-4-yl]methanone]",pIC50,[1],7.55
"COc1cc(C(=O)N2CC(C)OCC2CCO)cc2nc(NCc3cc(Cl)ccn3)oc12 (single isomer, unassigned) [Example 71, (2-{[(4-Chloropyridin-2-yl)methyl]amino}-7-methoxy-1,3-benzoxazol-5-yl) [5-(2-hydroxyethyl)-2-methylmorpholin-4-yl]methanone]",pIC50,[1],7.01
"COc1cc(C(=O)N2CC(C)CCC2CC2(O)CC2)cc2nc(NCc3cc(Cl)ccn3)oc12 (single isomer, unassigned) [Example 88, (2-{[(4-Chloropyridin-2-yl)methyl]amino}-7-methoxy-1,3-benzoxazol-5-yl){2-[(1-hydroxycyclopropyl)methyl]-5-methylpiperidin-1-yl}methanone]",pIC50,[1],8.18
